Key:
[1] = molecular target: T1, GRK2 (Homo sapiens, UniProt P25098); assay: ADPGlo GRK2 Inhibition Assay (Example 2); type: biochemical; conditions: ADP-Glo, 10 μM ATP; read-out: ADP Glo Enzymatic GRK2 Assay: IC50 (nM) (Example 2)
T1 sequence (P25098 1-689): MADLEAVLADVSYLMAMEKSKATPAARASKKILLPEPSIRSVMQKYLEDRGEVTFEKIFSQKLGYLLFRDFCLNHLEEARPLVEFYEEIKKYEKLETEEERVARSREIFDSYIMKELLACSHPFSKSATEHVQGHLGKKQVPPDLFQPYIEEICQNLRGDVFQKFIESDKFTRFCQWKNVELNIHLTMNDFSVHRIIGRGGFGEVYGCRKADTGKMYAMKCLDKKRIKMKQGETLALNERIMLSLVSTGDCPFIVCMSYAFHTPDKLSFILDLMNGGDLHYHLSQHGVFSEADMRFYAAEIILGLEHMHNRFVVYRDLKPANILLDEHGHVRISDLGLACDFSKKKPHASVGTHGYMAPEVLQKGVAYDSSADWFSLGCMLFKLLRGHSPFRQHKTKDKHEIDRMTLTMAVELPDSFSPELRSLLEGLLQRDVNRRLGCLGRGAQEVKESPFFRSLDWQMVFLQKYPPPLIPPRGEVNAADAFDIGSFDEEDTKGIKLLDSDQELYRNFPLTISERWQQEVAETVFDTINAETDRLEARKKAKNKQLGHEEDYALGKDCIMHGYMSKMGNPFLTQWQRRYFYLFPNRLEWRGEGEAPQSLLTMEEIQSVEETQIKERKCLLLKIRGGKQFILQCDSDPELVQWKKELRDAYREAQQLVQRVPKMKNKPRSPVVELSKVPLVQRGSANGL
Protocol: Assay: GRK2 (7.5 nM) was incubated with ATP (10 μM) and GRKtide (0.3 mg/mL) in 5 μL of assay buffer (see above) for 180 min at room temperature. HTS was performed using 1 μM compound. Compounds were dissolved in 100% DMSO, serially diluted tree-fold from 100 μM concentration to 46 nM and transferred (50 nL) into assay ready plate.
Materials: GRK2 was purchased from SignalChem (Cat #A14-10G, Lot #X645-3). Substrate GRKtide was from SignalChem (Cat #G46-58, Lot #R339-6). ADP-Glo Kinase Assay from Promega (Cat #V9102). Assay buffer consisted of 25 mM HEPES (pH7.5), 10 mM MgCl2, 0.01% Tween-20, 1 mM DDT. 384-well white plates were from Greiner […] (Item #784075).
HTS protocol: Take 384 well plate with 50 nL of compound in columns 3-22/DMSO solution 1-2,23-24. Add 2.5 μL assay buffer to columns 23 and 24 using Thermo Scientific Multidrop Combi Dispenser. Add 2.5 μL of 2× enzyme solution (15 nM in 1× assay buffer) using Thermo Scientific Multidrop Combi Reagent Dispenser to all columns except of 23 and 24. Incubate for 15 minutes. Fill plate with 2.5 μL of 2× substrate mix (20 μM ATP and 0.6 mg/mL GRKtide in 1× assay buffer) using Thermo Scientific Multidrop Combi Reagent Dispenser. Spin 15 seconds at 1000 rpm and incubate for 180 min at room temperature. Add 5 μL ADP-Glo reagent to all the wells. Spin 15 seconds at 1000 rpm and incubate for 40 min at room temperature. Add 10 μL Detection solution to all the wells. Incubate for 30 min at room temperature. Read plate in Luminescent mode on BMG PheraStar FSX (gain=3600).
Data Analysis: Data were analyzed in GraphPad Prism 8.0.2. Each HTS plate contains compounds in columns 3-22, controls (enzyme, no compound) in columns 1 and 2, and blanks (no enzyme) in columns 23 and 24. HTS percent inhibition was calculated for each compound from the signal in luminescence units and the mean of the plate controls and the mean of the plate blanks using the following equation: % Inhibition=100*(1−((signal−blank mean)/(control mean−blank mean))). At the final stage of data processing, we obtain dose-response curves, tables and SDF-files with the results of screening for each substance.

[2] = test system: PAXF1657 KO Clone #4; assay: 7-day cellular proliferation assay (CellTiter-Glo), PAXF1657 KO Clone #4; type: cell-based; conditions: 168 h, 7-day, read-out: 7-day proliferation assay: IC50 GeoMean (uM) [Cell Line: PAXF1657 KO Clone #4]
Summary of the method: (§1)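 PAXF1657 isogenic lines (GRK2-overexpressing vs empty vector; CRISPR GRK2 knockout vs non-targeting control clones) seeded 500 cells/well in RPMI1640/10% FBS and treated next day with 10-point dilutions, 30 μM-0.0002 μM final, 0.3% DMSO. Media with compound refreshed after 3 days; viability read by CellTiter-Glo luminescence at day 7.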

[3] = test system: PAXF1657 EV; assay: 7-day cellular proliferation assay (CellTiter-Glo), PAXF1657 EV; type: cell-based; conditions: 168 h, 7-day, read-out: 7-day proliferation assay: IC50 GeoMean (uM) [Cell Line: PAXF1657 EV]
Summary of the method: as §1

[4] = molecular target: T1, GRK2; assay: GRK2 Degradation Assay and Western Blot in PAXF1657 cells; type: cell-based; set-up: endogenous in cells; host or cells: PAXF1657; conditions: PAXF1657 EV, 24 hrs
Summary of the method: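 PAXF1657 cells grown to 70% confluency, then treated with compounds at 0–10 μM for 6 to 24 h at 37 °C. Lysates in PBS with 1% NP40 run on SDS-PAGE. GRK2 protein detected by western blot with β-actin as loading reference, using ECL chemiluminescence.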

Compound	IC50 [1]	IC50 [2]	IC50 [3]	inhibition at 0.3 µM ([4]; 0.3 uM, read-out: % GRK2 degradation at 0.3 uM in PAXF1657 EV (24 hrs))	inhibition at 1 µM ([4]; 1 uM, read-out: % GRK2 degradation at 1 uM in PAXF1657 EV (24 hrs))	inhibition at 3 µM ([4]; 3 uM, read-out: % GRK2 degradation at 3 uM in PAXF1657 EV (24 hrs))
Cn1c(CNc2cccc(C(=O)NCc3cccc(OCCCCCCOCCOCCOCCOCC(=O)Nc4cccc5c4CN(C4CCC(=O)NC4=O)C5=O)c3)c2)nnc1-c1ccncn1 (stereo not shown) [Compound D71]	< 100 nM	–	–	–	–	–
Cn1c(CNc2cccc(C(=O)NCc3cccc(OCCCCCCOCCOCC(=O)Nc4cccc5c4CN(C4CCC(=O)NC4=O)C5=O)c3)c2)nnc1-c1ccncn1 (stereo not shown) [Compound D72]	< 100 nM	1 to 10 µM	1 to 10 µM	36%	59%	64%

— patent US20240174637A1, “DEGRADERS OF GRK2 AND USES THEREOF” (Sonata Therapeutics, Inc., priority 2021, published 2024)
